The target in this assay is T1, human recombinant HDAC6 (Homo sapiens, UniProt Q9UBN7).
T1 construct: purchased Calbiochem 382180
T1 sequence (Q9UBN7 1-1215): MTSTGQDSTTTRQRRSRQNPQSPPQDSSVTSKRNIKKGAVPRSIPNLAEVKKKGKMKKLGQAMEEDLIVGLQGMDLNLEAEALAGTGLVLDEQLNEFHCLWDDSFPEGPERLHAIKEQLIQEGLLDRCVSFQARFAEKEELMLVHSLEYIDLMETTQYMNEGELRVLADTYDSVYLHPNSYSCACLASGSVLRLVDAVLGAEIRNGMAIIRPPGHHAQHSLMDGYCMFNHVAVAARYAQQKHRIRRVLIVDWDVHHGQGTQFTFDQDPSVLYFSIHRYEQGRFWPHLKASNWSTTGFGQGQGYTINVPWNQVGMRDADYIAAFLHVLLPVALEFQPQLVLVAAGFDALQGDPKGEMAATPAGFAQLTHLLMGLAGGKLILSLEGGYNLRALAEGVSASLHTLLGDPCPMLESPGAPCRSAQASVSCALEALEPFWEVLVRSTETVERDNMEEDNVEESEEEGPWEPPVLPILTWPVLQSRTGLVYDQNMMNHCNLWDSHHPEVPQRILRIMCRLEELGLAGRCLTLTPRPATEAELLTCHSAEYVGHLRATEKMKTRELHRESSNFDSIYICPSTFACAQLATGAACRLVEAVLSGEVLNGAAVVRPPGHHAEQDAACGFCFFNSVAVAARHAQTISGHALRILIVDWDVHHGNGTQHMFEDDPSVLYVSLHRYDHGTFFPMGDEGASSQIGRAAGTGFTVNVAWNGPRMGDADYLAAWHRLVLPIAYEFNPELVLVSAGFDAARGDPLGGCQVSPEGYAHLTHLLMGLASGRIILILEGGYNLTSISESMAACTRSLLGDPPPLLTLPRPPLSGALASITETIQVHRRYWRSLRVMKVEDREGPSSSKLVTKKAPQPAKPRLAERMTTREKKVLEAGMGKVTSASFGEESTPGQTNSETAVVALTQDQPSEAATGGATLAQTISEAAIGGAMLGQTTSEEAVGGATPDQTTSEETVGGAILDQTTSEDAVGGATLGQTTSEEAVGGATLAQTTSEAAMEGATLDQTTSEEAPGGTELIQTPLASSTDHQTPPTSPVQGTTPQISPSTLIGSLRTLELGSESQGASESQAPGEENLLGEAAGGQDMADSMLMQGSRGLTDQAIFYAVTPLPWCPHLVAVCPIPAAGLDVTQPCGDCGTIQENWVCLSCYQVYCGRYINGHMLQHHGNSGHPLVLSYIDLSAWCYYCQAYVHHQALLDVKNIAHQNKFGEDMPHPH
Kind of assay: HDAC6 enzyme activity inhibition assay (HDAC Fluorimetric Drug Discovery Kit). Type of assay: biochemical. Conditions: for HDAC6 selectivity (fold): HDAC6 over HDAC1; for pIC50: human recombinant HDAC6, same protocol as HDAC1, read-out: HDAC6. The method, boiled down:
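Human recombinant HDAC1 or HDAC6 (0.3 μg) reacted with 10 μM Fluor de Lys-SIRT1 substrate and 5-fold compound dilutions for 60 min at 30 °C. Developer II added for 30 min, fluorescence read at Ex 360/Em 460; IC50 calculated from the readings.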

pIC50: −log10 of the molar value.

Consider `O=C(N1CCS(=O)(=O)CC1)N(Cc1ccc(-c2nnc(C(F)F)o2)cc1)c1ccccc1C(F)(F)F` [Compound 21450, N-(4-(5-(difluoromethyl)-1,3,4-oxadiazol-2-yl)benzyl)-N-(2-(trifluoromethyl)phenyl)thiomorpholine-4-carboxamide 1,1-dioxide], for which the “HDAC6 selectivity (fold)” value is listed as 19 fold and the pIC50 is 6.28.
Consider `Cc1ccccc1N(Cc1ccc(-c2nnc(C(F)(F)F)o2)cc1)C(=O)N1CCS(=O)(=O)CC1` [Compound 21451, N-(o-tolyl)-N-(4-(5-(trifluoromethyl)-1,3,4-oxadiazol-2-yl)benzyl)thiomorpholine-4-carboxamide 1,1-dioxide], for which the “HDAC6 selectivity (fold)” value was 30 fold and the pIC50 was 6.48.
Regarding `Cc1ccccc1N(Cc1ccc(-c2nnc(C(F)F)o2)cc1)C(=O)N1CCS(=O)(=O)CC1` [Compound 21452, N-(4-(5-(difluoromethyl)-1,3,4-oxadiazol-2-yl)benzyl)-N-(o-tolyl)thiomorpholine-4-carboxamide 1,1-dioxide], the “HDAC6 selectivity (fold)” value was determined as 93 fold and the pIC50 was 6.97.
The corresponding values for `COc1ccc(N(Cc2ccc(-c3nnc(C(F)F)o3)cc2)C(=O)N2CCS(=O)(=O)CC2)cc1` [Compound 21453, N-(4-(5-(difluoromethyl)-1,3,4-oxadiazol-2-yl)benzyl)-N-(4-methoxyphenyl)thiomorpholine-4-carboxamide 1,1-dioxide] are 85 fold and 6.93.
For `COc1ccc(N(Cc2ccc(-c3nnc(C(F)(F)F)o3)cn2)C(=O)N2CCS(=O)(=O)CC2)cc1` [Compound 21454, N-(4-methoxyphenyl)-N-((5-(5-(trifluoromethyl)-1,3,4-oxadiazol-2-yl)pyridin-2-yl)methyl)thiomorpholine-4-carboxamide 1,1-dioxide], the “HDAC6 selectivity (fold)” value is recorded as 94 fold and the pIC50 was 6.97.
The corresponding values for `COc1ccc(N(Cc2ccc(-c3nnc(C(F)F)o3)cn2)C(=O)N2CCS(=O)(=O)CC2)cc1` [Compound 21455, N-((5-(5-(difluoromethyl)-1,3,4-oxadiazol-2-yl)pyridin-2-yl)methyl)-N-(4-methoxyphenyl)thiomorpholine-4-carboxamide 1,1-dioxide] are 294 fold and 7.47.
With `O=C(N1CCS(=O)(=O)CC1)N(Cc1ccc(-c2nnc(C(F)(F)F)o2)cc1)c1cccc(C(F)(F)F)n1` [Compound 21456, N-(4-(5-(trifluoromethyl)-1,3,4-oxadiazol-2-yl)benzyl)-N-(6-(trifluoromethyl)pyridin-2-yl)thiomorpholine-4-carboxamide 1,1-dioxide], the “HDAC6 selectivity (fold)” value is on record as 17 fold and the pIC50 is 6.24.
With `O=C(N1CCS(=O)(=O)CC1)N(Cc1ccc(-c2nnc(C(F)F)o2)cc1)c1cccc(C(F)(F)F)n1` [Compound 21457, N-(4-(5-(difluoromethyl)-1,3,4-oxadiazol-2-yl)benzyl)-N-(6-(trifluoromethyl)pyridin-2-yl)thiomorpholine-4-carboxamide 1,1-dioxide], the “HDAC6 selectivity (fold)” value amounted to 53 fold and the pIC50 was 6.72.
`CC(C)(C)c1ccc(N(Cc2ccc(-c3nnc(C(F)(F)F)o3)cc2)C(=O)N2CCS(=O)(=O)CC2)cc1` [Compound 21458, N-(4-(tert-butyl)phenyl)-N-(4-(5-(trifluoromethyl)-1,3,4-oxadiazol-2-yl)benzyl)thiomorpholine-4-carboxamide 1,1-dioxide]: the “HDAC6 selectivity (fold)” value turned out to be 1 fold.
Same read-out and setting: next, `CC(C)(C)c1ccc(N(Cc2ccc(-c3nnc(C(F)F)o3)cc2)C(=O)N2CCS(=O)(=O)CC2)cc1` [Compound 21459, N-(4-(tert-butyl)phenyl)-N-(4-(5-(difluoromethyl)-1,3,4-oxadiazol-2-yl)benzyl)thiomorpholine-4-carboxamide 1,1-dioxide]: 1 fold.
With `CC(C)(C)c1ccc(N(Cc2ccc(-c3nnc(C(F)(F)F)o3)cc2F)C(=O)N2CCS(=O)(=O)CC2)cc1` [Compound 21460, N-(4-(tert-butyl)phenyl)-N-(2-fluoro-4-(5-(trifluoromethyl)-1,3,4-oxadiazol-2-yl)benzyl)thiomorpholine-4-carboxamide 1,1-dioxide], the “HDAC6 selectivity (fold)” value is 1 fold.
Take `CC(C)(C)c1ccc(N(Cc2ccc(-c3nnc(C(F)F)o3)cc2F)C(=O)N2CCS(=O)(=O)CC2)cc1` [Compound 21461, N-(4-(tert-butyl)phenyl)-N-(4-(5-(difluoromethyl)-1,3,4-oxadiazol-2-yl)-2-fluorobenzyl)thiomorpholine-4-carboxamide 1,1-dioxide]: the “HDAC6 selectivity (fold)” value is recorded as 14 fold and the pIC50 was 6.14.
In the same order, the values of `O=C(N1CCOCC1)N(Cc1ccccc1)Cc1ccc(-c2nnc(C(F)(F)F)o2)cc1` [Compound 21462, N-benzyl-N-(4-(5-(trifluoromethyl)-1,3,4-oxadiazol-2-yl)benzyl)morpholine-4-carboxamide] are 7 fold and 5.85.
Take `O=C(N1CCOCC1)N(Cc1ccc(-c2nnc(C(F)(F)F)o2)cc1)Cc1cccnc1` [Compound 21463, N-(pyridin-3-ylmethyl)-N-(4-(5-(trifluoromethyl)-1,3,4-oxadiazol-2-yl)benzyl)morpholine-4-carboxamide]: the “HDAC6 selectivity (fold)” value is recorded as 2 fold and the pIC50 was 5.34.
Take `O=C(N1CCOCC1)N(Cc1ccncc1)Cc1ccc(-c2nnc(C(F)(F)F)o2)cc1` [Compound 21464, N-(pyridin-4-ylmethyl)-N-(4-(5-(trifluoromethyl)-1,3,4-oxadiazol-2-yl)benzyl)morpholine-4-carboxamide]: the “HDAC6 selectivity (fold)” value turned out to be 6 fold and the pIC50 is 5.76.
In the case of `CN1CCN(C(=O)N(Cc2ccc(-c3nnc(C(F)F)o3)cc2F)c2cccc(Br)c2)CC1` [Compound 21465, N-(3-bromophenyl)-N-(4-(5-(difluoromethyl)-1,3,4-oxadiazol-2-yl)-2-fluorobenzyl)-4-methylpiperazine-1-carboxamide], the “HDAC6 selectivity (fold)” value stood at 333 fold and the pIC50 is 7.52.
As to `CN1CCN(C(=O)N(Cc2ccc(-c3nnc(C(F)F)o3)cc2F)c2ccc(Br)cc2)CC1` [Compound 21466, N-(4-bromophenyl)-N-(4-(5-(difluoromethyl)-1,3,4-oxadiazol-2-yl)-2-fluorobenzyl)-4-methylpiperazine-1-carboxamide], the “HDAC6 selectivity (fold)” value worked out at 128 fold and the pIC50 is 7.11.
The corresponding values for `CN1CCN(C(=O)N(Cc2ccc(-c3nnc(C(F)F)o3)cc2F)c2cccc(Cl)c2)CC1` [Compound 21467, N-(3-chlorophenyl)-N-(4-(5-(difluoromethyl)-1,3,4-oxadiazol-2-yl)-2-fluorobenzyl)-4-methylpiperazine-1-carboxamide] are 323 fold and 7.51.
For the molecule `CN1CCN(C(=O)N(Cc2ccc(-c3nnc(C(F)F)o3)cc2F)c2ccc(Cl)cc2)CC1` [Compound 21468, N-(4-chlorophenyl)-N-(4-(5-(difluoromethyl)-1,3,4-oxadiazol-2-yl)-2-fluorobenzyl)-4-methylpiperazine-1-carboxamide], the “HDAC6 selectivity (fold)” value amounted to 159 fold and the pIC50 is 7.20.
The corresponding values for `Cc1ccccc1N(Cc1ccc(-c2nnc(C(F)F)o2)cc1F)C(=O)N1CCN(C)CC1` [Compound 21469, N-(4-(5-(difluoromethyl)-1,3,4-oxadiazol-2-yl)-2-fluorobenzyl)-4-methyl-N-(o-tolyl)piperazine-1-carboxamide] are 244 fold and 7.39.
In the case of `Cc1cccc(N(Cc2ccc(-c3nnc(C(F)F)o3)cc2F)C(=O)N2CCN(C)CC2)c1` [Compound 21470, N-(4-(5-(difluoromethyl)-1,3,4-oxadiazol-2-yl)-2-fluorobenzyl)-4-methyl-N-(m-tolyl)piperazine-1-carboxamide], the “HDAC6 selectivity (fold)” value came out at 313 fold and the pIC50 was 7.49.

These data come from patent US10717716B2, “1,3,4-oxadiazole derivative compounds as histone deacetylase 6 inhibitor, and the pharmaceutical composition comprising the same” (Chong Kun Dang Pharmaceutical Corp., priority 2015, dated 2020).
